#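 1) Cells in 96-well plates. 2) Compound, 48 h, 5 concentrations. 3) Linear interpolation between surrounding doses. 4) Unreached endpoint = highest concentration. Abbreviation: GI50, concentration required for 50% inhibition of growth. TGI is the concentration that stops growth completely.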 Where a SMILES comes first, the peptide text is derived from it. [ ]: non-standard residue; d: D form. The star is where a group is joined. ξ: configuration not given here. dIva = CC[C@@](C)(N)C(=O)O; Aib = CC(C)(N)C(=O)O; ξP = O=C(O)C1CCCN1; βAla = NCCC(=O)O; X5 = OCN*
# Key:
# Assay in all cases: DTP human tumour cell line panel, 48 h
# A498 renal = tested on: A498 renal
# A549 NSCLC = tested on: A549 NSCLC
# HCT-15 colon = tested on: HCT-15 colon
# HOP-62 NSCLC = tested on: HOP-62 NSCLC
# HT29 colon = tested on: HT29 colon
# MALME-3M melanoma = tested on: MALME-3M melanoma
# OVCAR-3 ovarian = tested on: OVCAR-3 ovarian
# OVCAR-8 ovarian = tested on: OVCAR-8 ovarian
# SR leukemia = tested on: SR leukemia
# U251 CNS = tested on: U251 CNS
SMILES,TGI (A498 renal) [µM],TGI (A549 NSCLC) [µM],TGI (HCT-15 colon) [µM],TGI (HOP-62 NSCLC) [µM],TGI (HT29 colon) [µM],TGI (MALME-3M melanoma) [µM],TGI (OVCAR-3 ovarian) [µM],TGI (OVCAR-8 ovarian) [µM],TGI (SR leukemia) [µM],TGI (U251 CNS) [µM],GI50 (A498 renal) [nM],GI50 (A549 NSCLC) [µM],GI50 (HCT-15 colon) [nM],GI50 (HOP-62 NSCLC) [nM],GI50 (HT29 colon) [nM],GI50 (MALME-3M melanoma) [nM],GI50 (OVCAR-3 ovarian) [nM],GI50 (OVCAR-8 ovarian) [nM],GI50 (U251 CNS) [nM],GI50 (SR leukemia) [nM]
O=C(O)CSc1nnc2c3ccccc3c3ccccc3c2n1,> 100,> 100,> 100,> 100,> 100,> 100,> 100,> 100,> 100,> 100,,,,,,,,,,
CCCCCCC(=O)CC(=O)C(=O)Nc1ccccc1C,> 100,> 100,> 66.3,> 100,> 100,> 100,> 100,> 100,> 100,> 100,,,,,,,,,,
Nc1ncnc2c1ncn2COC/C=C/I,> 100,> 100,,> 100,> 100,> 100,> 100,> 100,> 100,> 100,,,,,,,,,,
COc1cc2c3c(n(CCCN4CCN(CCO)CC4)c(=O)c2cc1OC)-c1cc2c(cc1C3=O)OCO2,81.6,20.7,> 61.2,54,15.9,31,28.3,28.3,1.34,> 48.6,18200,4.23,18100,10100,3060,15300,13200,7620,> 33700,
O=S1Cc2ccccc2CSS1 (configuration not stated),> 100,46.7,28.1,,32.1,26.2,31.1,27.6,51.2,31.9,,,,,,,,,,
NCCNc1ncnc2ccc(Cl)cc12,> 100,> 100,> 100,> 100,> 100,> 100,> 100,> 100,> 100,> 100,,,,,,,,,,
Nc1ncnc2c1ncn2C1OC(C(=O)OCCO)C(O)C1O (configuration not stated),> 100,> 100,> 100,> 100,> 100,> 100,> 100,> 100,> 100,> 100,,,,,,,,,,
CC[C@@](C)(NC(=O)[C@H](C)NC(=O)CCNC(=O)C(C)(C)NC(=O)[C@H](C)NC(=O)[C@@H]1CCCN1C(=O)[C@@](C)(CC)NC(=O)[C@H](Cc1ccccc1)NC(=O)C1CCCN1C(=O)C(C)(C)NC(=O)C1CCCN1C(=O)C(C)(C)NC(C)=O)C(=O)NCCC(=O)N[C@@H](CC(C)C)C(=O)NC(C)(C)C(=O)NCCC(=O)N[C@@H](CC(C)C)C(=O)NC(C)(C)C(=O)NC(C)(C)C(=O)N[C@@H](CC(C)C)C(=O)NCCC(=O)NCO (some centres not stated) (Ac-[Aib][ξP][Aib][ξP]F[dIva]PA[Aib][βAla]A[dIva][βAla]L[Aib][βAla]L[Aib][Aib]L[βAla]-X5),0.412,0.351,0.446,0.383,0.414,0.256,0.353,0.359,0.646,0.268,190,0.133,229,180,197,59.5,144,119,81.4,272
CC(=O)Nc1ccc(OCC(O)CO)cc1 (configuration not stated),> 100,> 100,> 100,> 100,> 100,> 100,> 100,> 100,> 100,> 100,,,,,,,,,,
CN1C(=O)C(C)(C)Oc2c(-c3cn(C)c(=O)c4[nH]ccc34)cc(S(C)(=O)=O)cc21,5.98,> 100,39.2,> 100,> 100,25.8,5.17,> 100,> 100,> 100,1110,0.989,2580,732,339,1100,999,1810,1520,469
C=C1CC(CC(=O)C(C)CC2CC(=C)C(=O)O2)OC1=O (configuration not stated),> 100,> 100,36.7,> 100,63.2,28.4,37,> 100,24.1,> 100,,,,,,,,,,
CC1=C(C(=O)NCc2ccccc2)C(c2ccccc2O)C(C(=O)NCc2ccccc2)=C(C)N1,33.9,44.6,30.2,39.5,38.5,30.1,31.9,40.9,> 65.9,29.5,,,,,,,,,,
CCOc1cc[n+](C(=C=[N-])C#N)cc1,> 100,> 100,> 100,> 100,> 100,> 100,> 100,> 100,> 100,> 100,,,,,,,,,,
Nc1cc(N)c2nc(-c3ccccc3)c(Oc3ccc(Cl)c(Cl)c3)nc2c1,12.3,43.5,> 100,37.9,,37.4,26.9,88.4,24.2,31.9,442,18.1,20000,16900,,15800,10800,27900,12100,3360
C[C@H](c1ccc(Cl)cc1[N+](=O)[O-])N1C(=O)c2cc(I)ccc2NC(=O)[C@H]1c1ccc(Cl)cc1,> 100,> 100,> 100,> 100,> 100,> 100,> 100,> 100,> 100,> 100,> 100000,6.01,> 100000,> 100000,> 100000,> 100000,8830,> 100000,> 100000,28000
CC(=O)N1c2ccc(-c3ccc(C(=O)O)cc3)cc2[C@H](Nc2ccc(Cl)cc2)C[C@@H]1C,1.71,28.1,13.5,22.4,29,3.64,18.8,63.5,18.7,32.9,66.7,1.23,61.3,67.7,122,168,343,2520,1550,34.2
COc1cc[nH]c1/C=C1\C(=O)Nc2ccc([N+](=O)[O-])c(N3CC[C@@H](O)C3)c21,0.815,2.18,2.92,1.88,1.56,1.97,1.59,3.46,0.185,2.07,182,0.167,123,181,209,921,131,278,172,53.6

SMILES,TGI (A498 renal) [µM],TGI (A549 NSCLC) [µM],TGI (HCT-15 colon) [µM],TGI (HOP-62 NSCLC) [µM],TGI (HT29 colon) [µM],TGI (MALME-3M melanoma) [µM],TGI (OVCAR-3 ovarian) [µM],TGI (OVCAR-8 ovarian) [µM],TGI (SR leukemia) [µM],TGI (U251 CNS) [µM],GI50 (A498 renal) [nM],GI50 (A549 NSCLC) [µM],GI50 (HCT-15 colon) [nM],GI50 (HOP-62 NSCLC) [nM],GI50 (HT29 colon) [nM],GI50 (MALME-3M melanoma) [nM],GI50 (OVCAR-3 ovarian) [nM],GI50 (OVCAR-8 ovarian) [nM],GI50 (U251 CNS) [nM],GI50 (SR leukemia) [nM]
O=C1OC(=O)C2C1C1C(c3ccccc3)=C(c3ccccc3)C2(O)C2C(=O)OC(=O)C12 (configuration not stated),> 100,> 100,> 100,> 100,> 100,> 100,> 100,> 100,> 100,> 100,,,,,,,,,,
CCC(=O)Oc1ccc(/C=N/NC(N)=S)nc1,> 100,> 100,> 100,82.3,> 100,> 100,> 100,> 100,> 100,> 100,23300,35.4,6380,5530,19300,6860,3370,3510,4500,1340
CN/N=C(/CC(=O)c1sc(NNC(C)=O)nc1C)C(=O)Nc1ccc(OC)cc1OC,> 100,> 100,> 100,> 100,> 100,> 100,> 100,> 100,> 100,> 100,,,,,,,,,,
O=S1(=O)C=C(c2ccccc2)C(c2ccccc2)=C1,3.25,5.11,3.15,4.42,,4.72,2.9,3.19,13.9,2.88,1470,2.13,1530,1870,,1930,1560,1560,1540,2800
CC(C)CC1NC(=O)C(C(C)C)NC(=O)CC(C)COC(=O)C(CC(C)C)N(C)C(=O)C(C(C)C)NC(=O)C(C(C)C)OC1=O (configuration not stated),> 50,> 50,> 50,> 50,> 50,> 50,> 50,> 50,> 50,> 50,,,,,,,,,,
O=C1C=C(OCC=C(Cl)Cl)C(=O)c2ccccc21,> 100,> 100,> 100,> 100,> 100,6.11,4.13,15.8,> 20.4,13.8,> 86200,33.2,7050,54900,11700,2180,1900,3290,2410,
CCC12C=CCN3CCC4(C(=C(C(=O)OC)C1)Nc1ccccc14)[C@H]32 (some centres not stated),79.4,> 100,> 100,,46.8,> 100,> 100,,34.8,,,,,,,,,,,
CCOc1ccccc1NC(=O)C(=O)c1c(O)c2ccc(O)cc2oc1=O,> 100,> 100,> 100,> 100,> 100,> 100,> 100,> 100,> 100,> 100,,,,,,,,,,
COc1ccc2c(c1)NC(=O)CN2c1nc(C)nc2ccccc12,,> 100,> 100,> 100,,> 100,0.000746,> 100,> 100,> 100,0.376,0.000588,0.413,0.69,0.307,,0.266,0.524,0.437,
CC(=O)Nc1cc(CN2CCCCC2)c(O)c2ncccc12,> 100,> 100,> 100,> 100,> 100,69.4,96.9,> 100,37.5,42,,,,,,,,,,
N#CC(CC(=O)O)=C(c1ccccc1)c1ccccc1,> 100,> 100,> 100,> 100,> 100,> 100,> 100,> 100,> 100,> 100,,,,,,,,,,
ClCCCN1CCCCC1CCl (configuration not stated),> 100,> 100,> 100,> 100,> 100,> 100,> 100,> 100,> 100,> 100,,,,,,,,,,
C#Cc1ccccc1N1C(=O)C=CC1=O,> 100,> 100,,> 100,> 100,> 100,> 100,> 100,> 100,> 100,,,,,,,,,,
NC(N)=N/N=C/c1ccc(Br)cc1,13.7,23.4,19,24.2,11.3,22.7,9.23,21.2,47,15.4,3570,6.46,3890,9800,3030,10100,3410,5300,3580,1840
OCC(O)C(OC1OC(CO)C(O)C(O)C1O)c1nn(-c2ccc(Cl)cc2)c2nc3cc(Cl)ccc3nc12 (configuration not stated),> 100,,> 100,> 100,> 100,> 100,> 100,> 100,> 100,> 100,,,,,,,,,,
O=C(OCc1ccccc1)c1ccccc1-c1c2ccc(=O)cc-2oc2cc(OCc3ccccc3)ccc12,88.2,82.2,63.3,,55.5,31.4,59.1,74,18.8,13.9,,,,,,,,,,
